Assay results: patent publication US20170342021A1, “RAS-INHIBITING INDENYL ACETAMIDE COMPOUNDS, COMPOSITIONS, AND USES” (ADT Pharmaceuticals, Inc., priority 2014, published 2017)

Experiments:
[1] = system: HCT-116 colon tumor cells expressing mutant Ras, compared to HT-29 expressing wild-type Ras; assay: Ras selectivity by growth inhibition, HT-29 versus HCT-116; type: cell-based, human; details: ratio of IC50 in HT-29 to IC50 in HCT-116; 5000 cells/well, 96-well plates, Cell Titer Glo
Method: (§1) This example illustrates cell growth assays that can be employed in the present invention. Cells can include A-549, HT-29, MDA-MB-231, Colo-205, Caco2, HCT-116, SW-480, and DLD-1 human cancer cells obtained from the American Type Culture Collection (ATCC). Human tumor cells are cultured using standard methods in RPMI-1640 growth medium supplemented with 5% fetal bovine serum (FBS). Normal rat kidney (NRK) and Ki-Ras transformed NRK cells (K-NRK) are obtained from ATCC, and were cultured according to supplier recommendations. CellTiter-Glo ATP cell growth assay reagents are obtained from Promega and used according to the manufacturer's protocol. Inhibitors of EGFR, Raf, and MEK are obtained from Selleck Chemicals. Cells are plated at a density of 5,000 cells per well in 96-well microplates or 1,250 cells per well in 384-well plates, and allowed to attach for at least 4 h. Test compounds are dissolved in dimethyl sulfoxide (DMSO), and this working stock is further diluted in growth medium for addition to cell cultures. Serial dilutions of the test compound are prepared in growth medium containing an equal amount of DMSO not exceeding 0.2% final concentration. Each compound concentration is tested in at least 3 separate samples per cell line. At the end of a 3-day treatment period, growth inhibition is analyzed using a bioluminescent assay of ATP concentration (Promega CellTiter-Glo) according to the manufacturer's protocol. The resulting luminescence is measured using the luminescence cartridge of the Molecular Devices Spectramax Paradigm microplate reader. The relative growth inhibition for each sample is determined by comparison with the values obtained for vehicle treated control samples. Growth inhibition values are plotted with the GraphPad Prism5 software using the 4-parameter logistic fit to obtain IC50 values, which corresponds to the growth inhibitory potency of the compound.
(§2) This example illustrates the use of well-established human colon tumor cell lines with widely divergent Ras activation status to determine selectivity values for exemplary compounds of the present invention. Cell lines thus employed in this example were HCT-116, a highly Ras-driven line expressing mutant Ras, SW-480, another strongly Ras-driven line expressing mutant Ras, and HT-29, a non-Ras-driven line expressing wild-type, non-mutated Ras. Cells were plated at 5000 cells/well in 96-well plates, and viable cell numbers were measured using the Cell Titer Glo ATP luminescence assay (Promega). FIGS. 5A-5F show results of these studies for exemplary compounds 054, 058, 057, 055, and 056, respectively. The calculated HT-29/HCT-116 selectivity values for the first five of the aforementioned compounds were 14, 13, 18, 11 and 5, respectively. The calculated HT-29/SW-480 selectivity values for the aforementioned compounds were 16, 16, 19, 13 and 5, respectively.

[2] = system: SW-480 colon tumor cells expressing mutant Ras, compared to HT-29 expressing wild-type Ras; assay: Ras selectivity by growth inhibition, HT-29 versus SW-480; type: cell-based, human; details: ratio of IC50 in HT-29 to IC50 in SW-480; 5000 cells/well, 96-well plates, Cell Titer Glo
Method: as §1, §2

[3] = system: HT-29; assay: CellTiter-Glo growth inhibition, HT-29; type: cell-based, human; details: ten-fold serial dilutions, wild type Ras line
Method: as §1, with “Cells can include A-549, HT-29, MDA-MB-231, Colo-205, Caco2, HCT-116, SW-480, and DLD-1 human cancer cells obtained from the American Type Culture Collection (ATCC). Human tumor cells are cultured using standard methods in RPMI-1640 growth medium supplemented with 5% fetal bovine serum (FBS).” left out
(§3) Cells were seeded in 384-well plates and allowed to attach. Ten-fold serial dilutions of compounds were tested. Each compound concentration was tested in at least 3 separate samples per cell line.

[4] = system: SW-480; assay: CellTiter-Glo growth inhibition, SW-480; type: cell-based, human; details: ten-fold serial dilutions, ras-mutant line
Method: as §1, with “Cells can include A-549, HT-29, MDA-MB-231, Colo-205, Caco2, HCT-116, SW-480, and DLD-1 human cancer cells obtained from the American Type Culture Collection (ATCC). Human tumor cells are cultured using standard methods in RPMI-1640 growth medium supplemented with 5% fetal bovine serum (FBS).” left out
as §3

[5] = system: Caco-2; assay: CellTiter-Glo growth inhibition, Caco-2; type: cell-based, human; details: ten-fold serial dilutions, wild type Ras line
Method: as §1, with “Cells can include A-549, HT-29, MDA-MB-231, Colo-205, Caco2, HCT-116, SW-480, and DLD-1 human cancer cells obtained from the American Type Culture Collection (ATCC). Human tumor cells are cultured using standard methods in RPMI-1640 growth medium supplemented with 5% fetal bovine serum (FBS).” left out
as §3

[6] = system: COLO-205; assay: CellTiter-Glo growth inhibition, COLO-205; type: cell-based, human; details: ten-fold serial dilutions, wild type Ras line, lowest level of active Ras
Method: as §1, with “Cells can include A-549, HT-29, MDA-MB-231, Colo-205, Caco2, HCT-116, SW-480, and DLD-1 human cancer cells obtained from the American Type Culture Collection (ATCC). Human tumor cells are cultured using standard methods in RPMI-1640 growth medium supplemented with 5% fetal bovine serum (FBS).” left out
as §3

[7] = system: DLD-1; assay: CellTiter-Glo growth inhibition, DLD-1; type: cell-based, human; details: ten-fold serial dilutions, ras-mutant line
Method: as §1, with “Cells can include A-549, HT-29, MDA-MB-231, Colo-205, Caco2, HCT-116, SW-480, and DLD-1 human cancer cells obtained from the American Type Culture Collection (ATCC). Human tumor cells are cultured using standard methods in RPMI-1640 growth medium supplemented with 5% fetal bovine serum (FBS).” left out
as §3

[8] = system: HCT-116; assay: CellTiter-Glo growth inhibition, HCT-116; type: cell-based, human; details: ten-fold serial dilutions, ras-mutant line
Method: as §1, with “Cells can include A-549, HT-29, MDA-MB-231, Colo-205, Caco2, HCT-116, SW-480, and DLD-1 human cancer cells obtained from the American Type Culture Collection (ATCC). Human tumor cells are cultured using standard methods in RPMI-1640 growth medium supplemented with 5% fetal bovine serum (FBS).” left out
as §3

[9] = system: panel of human colorectal cancer cell lines; assay: Growth inhibition by known Ras pathway inhibitors across the cell line panel; type: cell-based; details: comparison of potency across cell lines with differing Ras activation
Method: This example illustrates cell growth assays that can be employed in the present invention. Cells can include A-549, HT-29, MDA-MB-231, Colo-205, Caco2, HCT-116, SW-480, and DLD-1 human cancer cells obtained from the American Type Culture Collection (ATCC). Human tumor cells are cultured using standard methods in RPMI-1640 growth medium supplemented with 5% fetal bovine serum (FBS). Normal rat kidney (NRK) and Ki-Ras transformed NRK cells (K-NRK) are obtained from ATCC, and were cultured according to supplier recommendations. CellTiter-Glo ATP cell growth assay reagents are obtained from Promega and used according to the manufacturer's protocol. […] At the end of a 3-day treatment period, growth inhibition is analyzed using a bioluminescent assay of ATP concentration (Promega CellTiter-Glo) according to the manufacturer's protocol. The resulting luminescence is measured using the luminescence cartridge of the Molecular Devices Spectramax Paradigm microplate reader. The relative growth inhibition for each sample is determined by comparison with the values obtained for vehicle treated control samples. […]
This example illustrates the levels of Ras activation in different colorectal cancer cells. […] The ratio of the intensity of the Ras to GAPDH bands was expressed as relative Ras activation, which is presented above each lane in FIG. 4. […]

[10] = system: cells expressing oncogenic H-Ras; details: literature value, NIH probe report, cited from earlier work
[11] = Homo sapiens, HT-29, 384-well plates
[12] = Homo sapiens, SW480, 384-well plates
[13] = Homo sapiens, Caco-2, 384-well plates
[14] = Homo sapiens, COLO 205, 384-well plates
[15] = Homo sapiens, DLD-1, 384-well plates
[16] = Homo sapiens, HCT-116, 384-well plates

Row | IC50 [3, 11] [µM] | IC50 [4, 12] [µM] | IC50 [5, 13] [µM] | IC50 [6, 14] [µM] | IC50 [7, 15] [µM] | IC50 [8, 16] [µM] | Compound | HT-29/HCT-116 selectivity value [1] | HT-29/SW-480 selectivity value [2] | also measured
1 |  |  |  |  |  |  | COc1cc(/C=C2/C(C)=C(CC(=O)Nc3ccc(F)cc3)c3cc(F)ccc32)cc(OC)c1O [Compound 054, (Z)-2-(5-fluoro-1-(4-hydroxy-3,5-dimethoxybenzylidene)-2-methyl-1H-inden-3-yl)-N-(4-fluorophenyl)acetamide] | 14 | 16 | 
2 |  |  |  |  |  |  | COc1cc(/C=C2/C(C)=C(CC(=O)Nc3ccc(Cl)cc3)c3cc(F)ccc32)cc(OC)c1O [Compound 055, (Z)—N-(4-chlorophenyl)-2-(5-fluoro-1-(4-hydroxy-3,5-dimethoxybenzylidene)-2-methyl-1H-inden-3-yl)acetamide] | 11 | 13 | 
3 |  |  |  |  |  |  | COc1cc(/C=C2/C(C)=C(CC(=O)Nc3ccc(Cl)c(Cl)c3)c3cc(F)ccc32)cc(OC)c1O [Compound 056, (Z)—N-(3,4-dichlorophenyl)-2-(5-fluoro-1-(4-hydroxy-3,5-dimethoxybenzylidene)-2-methyl-1H-inden-3-yl)acetamide] | 5 | 5 | 
4 |  |  |  |  |  |  | COc1cc(/C=C2/C(C)=C(CC(=O)Nc3ccc(Br)cc3)c3cc(F)ccc32)cc(OC)c1O [Compound 057, (Z)—N-(4-bromophenyl)-2-(5-fluoro-1-(4-hydroxy-3,5-dimethoxybenzylidene)-2-methyl-1H-inden-3-yl)acetamide] | 18 | 19 | 
5 |  |  |  |  |  |  | COc1cc(/C=C2/C(C)=C(CC(=O)Nc3cccc(Br)c3)c3cc(F)ccc32)cc(OC)c1O [Compound 058, (Z)—N-(3-bromophenyl)-2-(5-fluoro-1-(4-hydroxy-3,5-dimethoxybenzylidene)-2-methyl-1H-inden-3-yl)acetamide] | 13 | 16 | 
6 | ≥ 23.6 | > 20 | > 20 | 0.0758 | 7.64 | 8.14 | OCCn1cc(-c2ccc3c(c2)CC/C3=N\O)c(-c2ccncc2)n1 [GDC0879] |  |  | 
7 |  |  |  |  |  |  | O=C1Nc2ccc(I)cc2/C1=C/c1cc(Br)c(O)c(Br)c1 [GW5074] |  |  | selectivity with regard to Ras activation [9]: did not show selectivity for cell lines expressing activated Ras; IC50 ([3]; 384-well plates): 19.1 µM; IC50 ([4]; 384-well plates): 8.07 µM; IC50 ([5]; 384-well plates): > 20 µM; IC50 ([6]; 384-well plates): 7.1 µM; IC50 ([7]; 384-well plates): 7.75 µM; IC50 ([8]; 384-well plates): 15.8 µM
8 |  |  |  |  |  |  | Cc1onc(C(=O)N2CCN(C(c3ccc(Cl)cc3)c3ccc(Cl)cc3)CC2)c1[N+](=O)[O-] [ML210] |  |  | selectivity versus cells lacking oncogenic Ras [10]: 4 fold; IC50 ([10]; read-out: IC50, growth of cells expressing mutant Ras): 0.071 µM
9 | 0.854 | > 20 | > 20 | 0.0046 | ≥ 20.4 | 4.11 | Cn1cnc2c(F)c(Nc3ccc(Br)cc3Cl)c(C(=O)NOCCO)cc21 [Selumetinib] |  |  | 
10 | 5.1 | 6.86 | 5.2 | 0.151 | 5.62 | 5.99 | CCCS(=O)(=O)Nc1ccc(F)c(C(=O)c2c[nH]c3ncc(-c4ccc(Cl)cc4)cc23)c1F [Vemurafenib] |  |  | 
